Values of other authors as cited in patent publication US6399093B1, “Method and composition to treat musculoskeletal disorders” (Advanced Medical Instruments, priority 1999, dated 2002).
Blank lines part the entries; values can stand above or below the compound they belong to.

Key:
[1] = oral
[2] = oral diclofenac group
[3] = after oral administration

Structure (SMILES): COc1cc2c(c(OC)c1OC)-c1ccc(OC)c(=O)cc1[C@@H](NC(C)=O)CC2 [colchicine, Colchicine]
Patients unable to tolerate an optimal dose because of gastrointestinal side effects [1]: Eighty

Number of GI reactions relative to the topical eltenac group [2]: three
Structure (SMILES): O=C(O)Cc1ccccc1Nc1c(Cl)cccc1Cl [diclofenac]

Structure (SMILES): N[C@H]1C(O)O[C@H](CO)[C@@H](O)[C@@H]1O.O=S(=O)(O)O (stereo partly drawn) [glucosamine sulfate]
Onset of clinical improvement of symptoms [3]: one
